Assay results as given in US11952364B2, “TRK inhibitors useful as anticancer drugs” (TYLIGAND BIOSCIENCE (SHANGHAI) LIMITED, priority 2018, dated 2024).

tested on: Ba/F3 ETV6-NTRK2 cells; assay: Proliferation of Ba/F3 ETV6-NTRK2 cells (CellTiter-Glo); format: cell-based; details: Mus musculus, BaF3; Table 2; 72 hours
Text: Ba/F3 ETV6-NTRK2 cell is a stable transgenic cell line constructed by KYinno Biotechnology Co., Ltd. on mouse primary B cell Ba/F3 wherein NTRK2 is highly expressed and fused with ETV6 to form ETV6-NTRK2. • [Test method]: Promega's CellTiter-Glo® Luminescent Cell Viability Assay kit was used to evaluate the inhibitory activity of the compounds on the proliferation of Ba/F3 ETV6-NTRK2C cells. • [Instrument]: Spectramax M3 multifunctional microplate reader from Molecular Devices. • [Test materials]: Ba/F3 ETV6-NTRK2 cell line (constructed by KYinno Biotechnology Co., Ltd. (Beijing)), 96-well transparent flat-bottomed black-walled cell culture plate (Corning, cat #3603), RPMI-1640 media (GE, cat #SH30027.01), fetal bovine serum FBS (Thermo Fisher, cat #10099-141), CellTiter-Glo® Luminescent Cell Viability Assay kit (Promega, cat #G7572), PBS (Solarbio, cat #P1020), DMSO (Sigma, cat #D2650). • [Experimental procedure]: When resuscitating Ba/F3 ETV6-NTRK2 cells, the freezing tube was quickly shaken in a 37° C. water bath to melt within 1 minute. The thawed cell suspension was mixed uniformly with RPMI1640 medium containing 10% FBS, centrifuged at 1000 rpm for 5 minutes, and the supernatant discarded. 5 mL of complete medium (RPMI1640 medium with 10% FBS) was taken to resuspend the cell pellets, charged into a cell culture flask with a bottom area of 25 cm^2, and incubated in a cell incubator at 37° C., 95% humidity and 5% CO2. Cells were allowed to passage when the number of cells reached about 10^6 cells/mL. For cell passage, the old cell suspension was directly pipetted evenly, 1/5 of the cell suspension was kept, 4 mL of new complete medium was added, and after pipetting evenly, the cell flask was placed in the cell incubator for further culturing. Cell plating was performed when the number of cells reached about 10^6 cells/mL again. For cell plating, 1/5 of the cell suspension was kept for further culturing as in the cell passage method, and the remaining 4/5 of the cell suspension was placed in a 15 mL centrifuge tube, detected for cell viability by Trypan blue exclusion method to ensure that cell viability was above 90%. A cell suspension with a density of 5.56×10^4 viable cells/mL was prepared with complete medium, and 90 μL of such cell suspension was added to a 96-well cell culture plate to obtain a cell density of 5000 viable cells/mL in the cell culture plate. A control group containing no cells, no compound and only complete medium (i.e, culture medium control) and a control group containing no compound but containing cells (i.e, cell control) were set. The cell plate was placed in a cell incubator overnight. The 10 mM compound stock solution in DMSO was first serially diluted with DMSO at a dilution factor of 3.16 times, to obtain 9 concentrations, and the 10th concentration was set as DMSO control without compound. Then, PBS was used to dilute the DMSO solutions of compounds of different concentrations, at a dilution factor of 100 times, so that the DMSO concentration in the compound solution of each concentration was 1%. Finally, 10 μL of each of the above solutions was added to the corresponding cell culture plate, so that the initial compound concentration was 10 μM, with the remaining concentrations being successively diluted at a dilution factor of 3.16 times, and the DMSO content in the cell culture plate was 0.1%. The cell plate was placed in a cell incubator and cultured for 72 hours. For endpoint detection, the CellTiter-Glo reagent was melted, and the cell plate was moved to room temperature to equilibrate for 30 minutes, added with 100 μL of CellTiter-Glo for each well, and shaken on an orbital shaker for 5 minutes to fully lyse the cells. The plate was kept at room temperature for 20 minutes to stabilize the luminescence signal, and the luminescence value of each well was scanned with a multi-functional microplate reader at full wavelength. • [Test sample]

| SMILES | IC50 |
| --- | --- |
| O=C(Nc1cnn2ccc(N3CCC[C@@H]3c3cc(F)ccc3F)nc12)N1CC[C@H](O)C1 [LOXO-101, Larotrectinib, reference compound] | 69 nM |
| CC(C)c1ccc(C(=O)Nc2ccc(Oc3cc4cnn(C)c4cc3-c3cn[nH]c3)c(F)c2)c(=O)n1-c1ccc(F)cc1 [Example 6, N-(3-fluoro-4-(1-methyl-6-(1H-pyrazol-4-yl)-1H-indazol-5-yloxy)phenyl)-1-(4-fluorophenyl)-6-isopropyl-2-oxo-1,2-dihydropyridine-3-carboxamide] | 209 nM |
| CCc1ccc(C(=O)Nc2ccc(Oc3cc4cnn(C)c4cc3-c3cn[nH]c3)c(F)c2)c(=O)n1-c1ccc(F)cc1 [Example 5, N-(3-fluoro-4-(1-methyl-6-(1H-pyrazol-4-yl)-1H-indazol-5-yloxy)phenyl)-1-(4-fluorophenyl)-6-ethyl-2-oxo-1,2-dihydropyridine-3-carboxamide] | 128 nM |
| Cn1ncc2cc(Oc3ccc(NC(=O)c4ccc(C5CC5)n(-c5ccc(F)cc5)c4=O)cc3F)c(-c3cn[nH]c3)cc21 [Example 2, N-(3-fluoro-4-(1-methyl-6-(1H-pyrazol-4-yl)-1H-indazol-5-yloxy)phenyl)-1-(4-fluorophenyl)-6-cyclopropyl-2-oxo-1,2-dihydmpyridine-3-carboxamide] | 269 nM |
| CCn1ncc2cc(Oc3ccc(NC(=O)c4ccc(C)n(-c5ccc(F)cc5)c4=O)cc3F)c(-c3cn[nH]c3)cc21 [Example 3, N-(3-fluoro-4-(1-ethyl-6-(1H-pyrazol-4-yl)-1H-indazol-5-yloxy)phenyl)-1-(4-fluorophenyl)-6-methyl-2-oxo-1,2-dihydmpyridine-3-carboxamide] | 341 nM |
| Cc1ccc(C(=O)Nc2ccc(Oc3cc4cnn(C(C)C)c4cc3-c3cn[nH]c3)c(F)c2)c(=O)n1-c1ccc(F)cc1 [Example 4, N-(3-fluoro-4-(1-isopropyl-6-(1H-pyrazol-4-yl)-1H-indazol-5-yloxy)phenyl)-1-(4-fluorophenyl)-6-methyl-2-oxo-1,2-dihydmpyridine-3-carboxamide] | 876 nM |
| Cn1ncc2cc(Oc3ccc(NC(=O)c4ccc(C(F)(F)F)n(-c5ccc(F)cc5)c4=O)cc3F)c(-c3cn[nH]c3)cc21 [Example 1, N-(3-fluoro-4-(1-methyl-6-(1H-pyrazol-4-yl)-1H-indazol-5-yloxy)phenyl)-1-(4-fluorophenyl)-6-trifluoromethyl-2-oxo-1,2-dihydmpyridine-3-carboxamide monomethanesulfonate] | 428 nM |
| Cc1ccc(C(=O)Nc2ccc(Oc3cc4cnn(C)c4cc3-c3cn[nH]c3)c(F)c2)c(=O)n1-c1ccc(F)cc1 [Merestinib, reference compound] | 211 nM |
